In PubChem BioAssay (NCI) one finds GI50 and TGI data, which are given here for three compounds.

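96-well plates; 48 h exposure; 5 concentrations. Endpoints by linear interpolation between flanking doses. Not reached: highest tested concentration assigned. At the GI50, growth is halved. TGI is the concentration that stops growth completely.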 Bounds are passed on as bounds.

Among the test systems are A498 renal; MCF7 breast; RPMI-8226 leukemia; NCI-H460 lung; SN12C renal; SF-539 CNS; U251 CNS; MOLT-4 leukemia; HT29 colon; HOP-62 NSCLC.
Holding throughout (test): DTP human tumour cell line panel, 48 h

For `CSC(=S)N/N=C(\C)c1ccccn1`, the GI50 with A498 renal was 458 nM; in the assay on MCF7 breast it was under 20.7 nM; with RPMI-8226 leukemia it was 23.2 nM; in the assay with NCI-H460 lung, 289 nM; in the assay with SN12C renal, 454 nM; in the assay on SF-539 CNS, 366 nM. In addition, the GI50 in the assay with U251 CNS is 199 nM; with MOLT-4 leukemia, under 14.5 nM; in the assay with HT29 colon, under 39.4 nM; with HOP-62 NSCLC, 366 nM. The concentration for total growth inhibition (TGI) in the assay with A498 renal was found to be 6330 nM; in the assay on MCF7 breast it was 11200 nM; in the assay on RPMI-8226 leukemia it was 16100 nM; in the assay on NCI-H460 lung it was 1230 nM; in the assay on SN12C renal it was 37500 nM; in the assay with SF-539 CNS, 3540 nM. Further, the TGI was found to be 13600 nM in the assay on U251 CNS, 975 nM with MOLT-4 leukemia, 18100 nM in the assay with HT29 colon and 5190 nM in the assay with HOP-62 NSCLC.

In the case of `Oc1ccc2ccccc2c1/C=N\Nc1ccccn1`, the GI50 was 1250 nM with A498 renal; 895 nM in the assay with MCF7 breast; 654 nM with RPMI-8226 leukemia; 336 nM with NCI-H460 lung; 1700 nM with SN12C renal; 529 nM with SF-539 CNS. The GI50 was 427 nM in the assay with U251 CNS, 358 nM with MOLT-4 leukemia, 39100 nM with HT29 colon and 416 nM with HOP-62 NSCLC. In addition, the TGI in the assay with A498 renal was 7030 nM; with MCF7 breast, over 34000 nM; in the assay with RPMI-8226 leukemia it was over 100000 nM; with NCI-H460 lung, 1750 nM; in the assay with SN12C renal, over 100000 nM; in the assay on SF-539 CNS, over 26800 nM. Besides, the TGI with U251 CNS is 97300 nM; in the assay with MOLT-4 leukemia, over 100000 nM; with HT29 colon, over 100000 nM; in the assay on HOP-62 NSCLC it was 17000 nM.

For the compound `CCOc1ccc2c(c1)/C(=C\C=C\C1CC(C)C3CC(OCC)CCC3N1CC)CC(C)N2CC` (stereo not given), the GI50 was 378 nM with A498 renal; 627 nM in the assay on MCF7 breast; 269 nM in the assay with RPMI-8226 leukemia; 416 nM in the assay on NCI-H460 lung; 471 nM in the assay on SN12C renal; 1270 nM with SF-539 CNS. The GI50 in the assay on U251 CNS is 380 nM; in the assay with MOLT-4 leukemia it was 1470 nM; in the assay on HT29 colon, 521 nM; in the assay with HOP-62 NSCLC it was 755 nM. Further, the TGI with A498 renal worked out at 1830 nM; in the assay with MCF7 breast it was 2430 nM; in the assay with RPMI-8226 leukemia, 1650 nM; with NCI-H460 lung, 1640 nM; with SN12C renal, 1810 nM; in the assay with SF-539 CNS, 2680 nM. Further, the TGI is 1510 nM in the assay on U251 CNS, 4140 nM in the assay on MOLT-4 leukemia, 1690 nM in the assay with HT29 colon and 2250 nM in the assay on HOP-62 NSCLC.

As usually defined, the GI50 is the concentration at which growth is held to half of that of the control. The term TGI denotes the concentration giving total growth inhibition.
